According to ChEMBL document CHEMBL1148099, “New myrsinol-related polyfunctional pentacyclic diterpene esters from roots of Euphorbia prolifera” (J Nat Prod, 1995):

Experiment: Skin irritant activity in mouse ear assessed as irritant units per ear after 24 hrs
Assay type: ADME, tissue-based
Settings: topical_or_ocular

Row | Compound | Activity [µg]
1 | CCC(=O)OC1C(C)CC2(OC(C)=O)C1[C@@H](OC(C)=O)[C@@]13CO[C@@](C)(C2OC(C)=O)C1C1C(C[C@]1(C)OC(C)=O)C(OC(=O)C(C)C)C3=O (some centres not stated) | > 1000
2 | CCC(=O)OC1C(C)CC2(OC(C)=O)C1[C@@H](OC(C)=O)[C@@]13CO[C@@](C)(C2OC(C)=O)C1C1C(C[C@]1(C)OC(C)=O)C(OC(=O)c1ccccc1)C3=O (some centres not stated) | > 1000
